# Assay results: patent US4513001A, “β-Adrenergic 1-[1-benzimidazolyl]-N-[2-(4-hydroxy-3-methoxy-phenyl)-2-hydroxy-ethyl]- 3-amino butane and salts and hydrates thereof” (priority 1982, dated 1985)
# Entries after “also recorded” stand apart in the source; their conditions may differ. Where two headings read alike, the source gives them in different places.
# How the values were obtained:
# rat uterus preparation = test: Uterus relaxing activity in vitro; details: for EC50: Rattus norvegicus, 7 preparations, read-out: CE50 (effective concentration 50, inhibiting by 50% the control contraction)
# Text: This activity was investigated on a rat uterus preparation, put into estrus by cutaneous injection of oestradiol benzoate. The uterine horns were kept alive in a RINGER-LOCKE solution, modified by GADDUM and VOGT.
# Their activity is expressed by the value of the molar CE50 (effective concentration 50, inhibiting by 50% the control contraction induced by the contracting agent).
# Each CE50 indicated below was obtained from the results of 7 preparations.
# histamine bronchospasm [1] = test: Bronchodilator activity in vivo, anesthetized dog, intraduodenal (intratracheal pressure, histamine bronchospasm)
# Description: 1.2.2. In the anesthesized dog (recording of the intratracheal pressure)
# A bronchospasm was caused by intravenous injection and histamine. The bronchodilator activity was shown by partial or total inhibition of this spasm.
# The products studied were administered intraduodenally and the histamine injected then at various times to follow the effect of the treatment.
# The results borne in the table below are the averages of the values obtained in 3 animals for each product.
# [2] = test system: isolated right atrium preparation of the guinea pig; test: Activity on the heart rate in vitro, isolated right atrium; details: for Heart rate, maximum: basal 209 (Compound A), 202 (Salbutamol); for Tachycardiac activity in vitro (comparison with Salbutamol): sulphate, dihydrate
# Description: This action was studied on an isolated right atrium preparation of the guinea pig kept alive in a RINGER solution. The effect of cumulative doses on the heart rate was recorded. The results below are the averages of 6 preparations of the compound A, of 4 for Salbutamol
# histamine bronchospasm [3] = test: Bronchodilator activity in vivo, anesthetized guinea pig, intravenous (inhibition of histamine bronchospasm, KONZETT); details: for % inhibition in time: i.v.
# Description: (§1) 1.2.1 In the anesthesized guinea pig (method of KONZETT. Arch. Exp. Pathol. Pharmakol. 1940 195 71-74)
# (§2) A bronchospasm was caused by intravenous histamine injection. The bronchodilator activity was shown by partial or total inhibition of this spasm.
# The product studied was administered intravenously or intraduodenaly and histamine injected then at different times to follow the delay in appearance and the duration of the inhibiting effect of the treatment. […]
# guinea pig trachea = test: β-stimulant specificity: guinea pig trachea before and after propranolol; details: for EC50: Cavia porcellus, 6 preparations
# Text: respiratory (guinea pig trachea, in vitro)
# cardiovascular (heart rate of the dog, in vivo) by the antagonistic effect of a β-blocking product.
# [4] = test system: heart rate and mean aortic pressure; test: Heart rate and mean aortic pressure of the anesthetised dog, intraduodenal; assay type: in vivo; details: for Heart rate, maximum cumulative effect / Average aortic pressure, maximum cumulative effect: intraduodenal
# Description: 3.1.1. Activity on the heart rate and on the mean aortic pressure of the anesthetisied dog
# The activity of the compound A and of Salbutamol was studied on 2 batches of 3 dogs per product: one in spontaneous respiration, the other in artificial respiration; the two substances were administered intraduodenally at 3 doses: 0.008-0.025 and 0.08 mg/kg.
# [5] = test system: isolated trachea preparation of the guinea pig; test: Relaxant activity on isolated tracheal muscle in vitro
# Description: This activity was studied on an isolated trachea preparation of the guinea pig (chain of tracheal rings, according to CASTILLO and BEER. Journ. Pharmacol. Exp. Ther. 1947 90 104-109), kept alive in a KREBS solution. The effect of cumulative doses on the pressure of the preparation was recorded.
# The activity of the substance was expressed by the value of the molar CD50 (decontracting concentration 50=concentration giving 50% of maximum relaxation), of which the negative log. is the value pD2, and by the intrinsic activity corresponding to maximum effect.
# These values were determined in parallel for the compound A and Salbutamol, on 6 preparations for each.
# histamine bronchospasm [6] = test: Bronchodilator activity in vivo, anesthetized guinea pig, intraduodenal (inhibition of histamine bronchospasm, KONZETT)
# Description: as §1, §2
# The product studied was administered intravenously or intraduodenaly and histamine injected then at different times to follow the delay in appearance and the duration of the inhibiting effect of the treatment.
# The results below are the averages of the values obtained in 10 animals.
smiles,measurement,setting,value
"COc1cc(C(O)CNC(C)CCn2cnc3ccccc32)ccc1O (centres unmarked) [Compound A, 1-[1-benzimidazolyl]-N-[2-(4-hydroxy-3-methoxy-phenyl)2-hydroxy-ethyl]3-amino butane basic sulphate, dihydrate]",EC50,rat uterus preparation; contracting agent acetylcholine,0.00067 µM
same,EC50,rat uterus preparation; contracting agent serotonine,0.0024 µM
same,Activity on the uterus (comparison with Salbutamol),"rat uterus preparation; in vitro, in words",of the same order of that of Salbutamol
same,% inhibition in time,"histamine bronchospasm [1]; 0.025 mg base/kg, 5 min",48%
same,% inhibition in time,"histamine bronchospasm [1]; 0.025 mg base/kg, 20 min",60%
same,% inhibition in time,"histamine bronchospasm [1]; 0.025 mg base/kg, 35 min",67%
same,% inhibition in time,"histamine bronchospasm [1]; 0.025 mg base/kg, 60 min",63%
same,% inhibition in time,"histamine bronchospasm [1]; 0.025 mg base/kg, 90 min",62%
same,% inhibition in time,"histamine bronchospasm [1]; 0.08 mg base/kg, 5 min",70%
same,% inhibition in time,"histamine bronchospasm [1]; 0.08 mg base/kg, 20 min",78%
same,% inhibition in time,"histamine bronchospasm [1]; 0.08 mg base/kg, 35 min",76%
same,% inhibition in time,"histamine bronchospasm [1]; 0.08 mg base/kg, 60 min",70%
same,% inhibition in time,"histamine bronchospasm [1]; 0.08 mg base/kg, 90 min",60%
same,"Bronchodilator activity (comparison, in words)","histamine bronchospasm [1]; sulphate, dihydrate","acted more rapidly (inhibition already strong in 5 minutes); also recorded: activity was higher than or equal to that of Salbutamol, is characterised by its great speed of action"
same,"Heart rate, increase",[2]; 1 × 10^-5 mol (maxi for Salbutamol),+47 beats per min.
same,"Heart rate, maximum",[2]; 1 × 10^-5 mol,256 beats per min.
same,"Heart rate, increase",[2]; 1 × 10^-6 mol (maxi for Compound A),+49 beats per min.
same,"Heart rate, maximum",[2]; 1 × 10^-6 mol,258 beats per min.
same,"Heart rate, increase",[2]; 1 × 10^-7 mol,+40 beats per min.
same,"Heart rate, maximum",[2]; 1 × 10^-7 mol,249 beats per min.
same,Emax,"[2]; Cavia porcellus, same preparation, at the start of the test, read-out: Maximum as % of the maximum tachycardia obtained with isoprenaline",< 50%
same,CE50 and pD2 on heart rate (not calculable),"[2]; in vitro, in words",this low activity prevents calculation of a CE50 and a pD2
same,Tachycardiac activity in vitro (comparison with Salbutamol),"[2]; in words, listed as Compound a","only a partial effect, very much less than that of Salbutamol"
same,Tachycardiac activity in vitro (comparison with Salbutamol),[2]; in words,increases the rate but the maximum effect is very much less than that of Salbutamol
same,% inhibition in time,"histamine bronchospasm [3]; 0.08 μg base/kg, 1 min",1%
same,% inhibition in time,"histamine bronchospasm [3]; 0.08 μg base/kg, 5 min",1%
same,% inhibition in time,"histamine bronchospasm [3]; 0.08 μg base/kg, 10 min",0%
same,% inhibition in time,"histamine bronchospasm [3]; 0.08 μg base/kg, 15 min",0%
same,% inhibition in time,"histamine bronchospasm [3]; 0.25 μg base/kg, 1 min",9%
same,% inhibition in time,"histamine bronchospasm [3]; 0.25 μg base/kg, 5 min",1%
same,% inhibition in time,"histamine bronchospasm [3]; 0.25 μg base/kg, 10 min",0%
same,% inhibition in time,"histamine bronchospasm [3]; 0.25 μg base/kg, 15 min",0%
same,% inhibition in time,"histamine bronchospasm [3]; 0.8 μg base/kg, 1 min",36%
same,% inhibition in time,"histamine bronchospasm [3]; 0.8 μg base/kg, 5 min",3%
same,% inhibition in time,"histamine bronchospasm [3]; 0.8 μg base/kg, 10 min",2%
same,% inhibition in time,"histamine bronchospasm [3]; 0.8 μg base/kg, 15 min",3%
same,% inhibition in time,"histamine bronchospasm [3]; 2.5 μg base/kg, 1 min",66%
same,% inhibition in time,"histamine bronchospasm [3]; 2.5 μg base/kg, 5 min",13%
same,% inhibition in time,"histamine bronchospasm [3]; 2.5 μg base/kg, 10 min",8%
same,% inhibition in time,"histamine bronchospasm [3]; 2.5 μg base/kg, 15 min",8%
same,% inhibition in time,"histamine bronchospasm [3]; 8 μg base/kg, 1 min",73%
same,% inhibition in time,"histamine bronchospasm [3]; 8 μg base/kg, 5 min",17%
same,% inhibition in time,"histamine bronchospasm [3]; 8 μg base/kg, 10 min",12%
same,% inhibition in time,"histamine bronchospasm [3]; 8 μg base/kg, 15 min",8%
same,% inhibition in time,"histamine bronchospasm [3]; 25 μg base/kg, 1 min",92%
same,% inhibition in time,"histamine bronchospasm [3]; 25 μg base/kg, 5 min",52%
same,% inhibition in time,"histamine bronchospasm [3]; 25 μg base/kg, 10 min",38%
same,% inhibition in time,"histamine bronchospasm [3]; 25 μg base/kg, 15 min",28%
same,% inhibition in time,"histamine bronchospasm [3]; 84 μg base/kg, 1 min",92%
same,% inhibition in time,"histamine bronchospasm [3]; 84 μg base/kg, 5 min",80%
same,% inhibition in time,"histamine bronchospasm [3]; 84 μg base/kg, 10 min",70%
same,% inhibition in time,"histamine bronchospasm [3]; 84 μg base/kg, 15 min",63%
same,% inhibition in time,"histamine bronchospasm [3]; 84 μg base/kg, 30 min",51%
same,% inhibition in time,"histamine bronchospasm [3]; 84 μg base/kg, 45 min",36%
same,% inhibition in time,"histamine bronchospasm [3]; 84 μg base/kg, 60 min",21%
same,Bronchodilator activity (comparison with Salbutamol),"histamine bronchospasm [3]; intravenous, in words","activity of the same order, although very slightly less for compound A at low doses; at the highest dose, the effect is intense and lasting, the compound A had an activity at least equal to that of Salbutamol"
same,EC50,guinea pig trachea; read-out: CD50 before propranolol,0.071 µM
same,EC50,"guinea pig trachea; propranolol 1.7×10^-8 mol, read-out: CD50 after propranolol",0.25 µM
same,Ratio of CD50,guinea pig trachea; after / before propranolol,3.5
same,Tachycardiac and hypotensive effect (comparison with Salbutamol),"[4]; anesthetised dog, in words",a little less tachycardiac and hypotensive than Salbutamol
same,"Heart rate, maximum cumulative effect","[4]; artificial respiration, 10 min after 0.08 mg/kg",+20 cpm
same,"Average aortic pressure, maximum cumulative effect","[4]; artificial respiration, 75 min after 0.08 mg/kg",-26 mmHg
same,"Heart rate, maximum cumulative effect","[4]; spontaneous respiration, 15 min after 0.08 mg/kg",+17 cpm
same,"Average aortic pressure, maximum cumulative effect","[4]; spontaneous respiration, 20 min after 0.08 mg/kg",-15 mmHg
same,Maximum response (decontraction),[5]; 6 preparations,390 mg
same,Emax,"[5]; Cavia porcellus, 6 preparations, Salbutamol 1.00, read-out: Intrinsic activity",109%
same,EC50,"[5]; Cavia porcellus, 6 preparations, read-out: CD50 (decontracting concentration 50, concentration giving 50% of maximum relaxation)",0.071 µM
same,EC50,"[5]; Cavia porcellus, negative log of molar CD50, 6 preparations, read-out: pD2 (converted)",0.0708 µM
same,Activity on the tracheal muscle (comparison with Salbutamol),"[5]; in vitro, in words",very close to that of Salbutamol
same,% inhibition in time,"histamine bronchospasm [6]; 0.25 mg base/kg, 1 min",11%
same,% inhibition in time,"histamine bronchospasm [6]; 0.25 mg base/kg, 5 min",27%
same,% inhibition in time,"histamine bronchospasm [6]; 0.25 mg base/kg, 15 min",26%
same,% inhibition in time,"histamine bronchospasm [6]; 0.25 mg base/kg, 30 min",26%
same,% inhibition in time,"histamine bronchospasm [6]; 0.25 mg base/kg, 45 min",19%
same,% inhibition in time,"histamine bronchospasm [6]; 0.25 mg base/kg, 60 min",13%
same,% inhibition in time,"histamine bronchospasm [6]; 0.25 mg base/kg, 90 min",9%
same,% inhibition in time,"histamine bronchospasm [6]; 0.8 mg base/kg, 1 min",16%
same,% inhibition in time,"histamine bronchospasm [6]; 0.8 mg base/kg, 5 min",60%
same,% inhibition in time,"histamine bronchospasm [6]; 0.8 mg base/kg, 15 min",61%
same,% inhibition in time,"histamine bronchospasm [6]; 0.8 mg base/kg, 30 min",44%
same,% inhibition in time,"histamine bronchospasm [6]; 0.8 mg base/kg, 45 min",29%
same,% inhibition in time,"histamine bronchospasm [6]; 0.8 mg base/kg, 60 min",23%
same,% inhibition in time,"histamine bronchospasm [6]; 0.8 mg base/kg, 90 min",21%
same,% inhibition in time,"histamine bronchospasm [6]; 2.5 mg base/kg, 1 min",20%
same,% inhibition in time,"histamine bronchospasm [6]; 2.5 mg base/kg, 5 min",73%
same,% inhibition in time,"histamine bronchospasm [6]; 2.5 mg base/kg, 15 min",65%
same,% inhibition in time,"histamine bronchospasm [6]; 2.5 mg base/kg, 30 min",53%
same,% inhibition in time,"histamine bronchospasm [6]; 2.5 mg base/kg, 45 min",44%
same,% inhibition in time,"histamine bronchospasm [6]; 2.5 mg base/kg, 60 min",39%
same,% inhibition in time,"histamine bronchospasm [6]; 2.5 mg base/kg, 90 min",34%
same,% inhibition in time,"histamine bronchospasm [6]; 2.5 mg base/kg, 120 min",30%
same,% inhibition in time,"histamine bronchospasm [6]; 8 mg base/kg, 1 min",51%
same,% inhibition in time,"histamine bronchospasm [6]; 8 mg base/kg, 5 min",82%
same,% inhibition in time,"histamine bronchospasm [6]; 8 mg base/kg, 15 min",82%
same,% inhibition in time,"histamine bronchospasm [6]; 8 mg base/kg, 30 min",71%
same,% inhibition in time,"histamine bronchospasm [6]; 8 mg base/kg, 45 min",67%
same,% inhibition in time,"histamine bronchospasm [6]; 8 mg base/kg, 60 min",65%
same,% inhibition in time,"histamine bronchospasm [6]; 8 mg base/kg, 90 min",59%
same,% inhibition in time,"histamine bronchospasm [6]; 8 mg base/kg, 120 min (n = 9 compound A, n = 8 Salbutamol)",55%
same,minimal effective dose,"histamine bronchospasm [6]; Cavia porcellus, read-out: Threshold active dose",0.25 mg/kg
same,"Bronchodilator activity (comparison, in words)","histamine bronchospasm [6]; sulphate, dihydrate",more lasting at 8 mg/kg; also recorded: more active than Salbutamol
